Results taken from article PMC6911642 (Cancer research, 2019).

Columns and labels:
PERK = target: T1, PERK (Rattus norvegicus, UniProt Q9Z1Z1); test: Inhibition of PERK autophosphorylation; type: cell-based
T1 sequence (Q9Z1Z1 28-1108): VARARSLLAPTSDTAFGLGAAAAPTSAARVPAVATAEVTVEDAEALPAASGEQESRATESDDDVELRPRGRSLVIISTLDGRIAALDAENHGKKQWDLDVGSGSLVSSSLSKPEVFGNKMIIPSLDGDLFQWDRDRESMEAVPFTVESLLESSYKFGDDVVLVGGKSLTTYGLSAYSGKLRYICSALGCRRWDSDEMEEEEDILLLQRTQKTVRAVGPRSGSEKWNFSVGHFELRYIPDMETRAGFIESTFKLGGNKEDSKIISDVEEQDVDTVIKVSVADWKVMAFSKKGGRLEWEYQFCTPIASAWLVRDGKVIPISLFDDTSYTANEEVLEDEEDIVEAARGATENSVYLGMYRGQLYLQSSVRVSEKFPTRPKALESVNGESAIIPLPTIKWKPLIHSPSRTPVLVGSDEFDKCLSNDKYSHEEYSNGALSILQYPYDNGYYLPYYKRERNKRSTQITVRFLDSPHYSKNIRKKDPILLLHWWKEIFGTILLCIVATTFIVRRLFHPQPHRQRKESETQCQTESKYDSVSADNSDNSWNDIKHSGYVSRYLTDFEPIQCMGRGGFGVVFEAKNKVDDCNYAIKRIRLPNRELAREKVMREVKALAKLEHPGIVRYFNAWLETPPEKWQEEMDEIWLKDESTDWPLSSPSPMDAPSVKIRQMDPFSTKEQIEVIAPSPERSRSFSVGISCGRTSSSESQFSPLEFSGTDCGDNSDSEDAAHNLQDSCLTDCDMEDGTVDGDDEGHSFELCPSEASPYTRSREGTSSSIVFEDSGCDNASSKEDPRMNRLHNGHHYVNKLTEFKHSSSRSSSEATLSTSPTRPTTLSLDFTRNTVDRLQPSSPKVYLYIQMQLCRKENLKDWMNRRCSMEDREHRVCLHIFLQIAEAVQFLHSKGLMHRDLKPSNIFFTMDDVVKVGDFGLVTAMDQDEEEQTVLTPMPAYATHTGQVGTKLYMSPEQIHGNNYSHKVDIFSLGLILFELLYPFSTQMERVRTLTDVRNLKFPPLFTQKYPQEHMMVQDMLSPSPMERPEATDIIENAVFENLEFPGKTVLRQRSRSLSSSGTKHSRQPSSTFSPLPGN

IRE1α = IRE1α (Rattus norvegicus, UniProt A0A4Y1YQ52); test: Inhibition of IRE1α RNase output; type: cell-based
IRE1α, sequence (A0A4Y1YQ52 21-977): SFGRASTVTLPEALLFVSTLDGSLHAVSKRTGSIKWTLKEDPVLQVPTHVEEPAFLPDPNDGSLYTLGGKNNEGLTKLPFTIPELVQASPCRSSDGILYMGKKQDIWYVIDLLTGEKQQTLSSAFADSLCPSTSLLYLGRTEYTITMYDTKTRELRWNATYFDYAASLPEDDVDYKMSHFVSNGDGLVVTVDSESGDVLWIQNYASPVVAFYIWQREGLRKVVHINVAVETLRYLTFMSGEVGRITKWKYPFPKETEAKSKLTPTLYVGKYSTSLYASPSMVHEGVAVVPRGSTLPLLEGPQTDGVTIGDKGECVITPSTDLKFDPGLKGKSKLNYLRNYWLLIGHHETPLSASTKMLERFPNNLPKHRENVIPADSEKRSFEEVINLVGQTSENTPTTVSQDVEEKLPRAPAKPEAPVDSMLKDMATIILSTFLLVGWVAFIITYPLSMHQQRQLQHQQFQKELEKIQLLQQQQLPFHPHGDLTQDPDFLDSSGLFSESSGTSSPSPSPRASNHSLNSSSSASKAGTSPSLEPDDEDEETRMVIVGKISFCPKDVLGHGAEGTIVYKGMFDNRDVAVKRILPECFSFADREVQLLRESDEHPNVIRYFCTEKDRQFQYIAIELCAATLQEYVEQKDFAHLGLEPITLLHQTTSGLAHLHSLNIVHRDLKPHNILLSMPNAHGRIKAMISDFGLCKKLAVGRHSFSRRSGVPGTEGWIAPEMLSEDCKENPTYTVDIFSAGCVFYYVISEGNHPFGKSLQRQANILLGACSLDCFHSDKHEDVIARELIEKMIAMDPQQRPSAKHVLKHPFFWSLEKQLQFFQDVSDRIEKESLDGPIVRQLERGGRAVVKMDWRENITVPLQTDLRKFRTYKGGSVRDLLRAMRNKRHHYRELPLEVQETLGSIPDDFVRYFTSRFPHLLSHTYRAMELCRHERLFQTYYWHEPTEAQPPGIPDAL

Compound	IC50 (PERK) [nM]	IC50 (IRE1α) [nM]
Cc1cccc(CC(=O)N2CCc3c2ccc(-c2cn(C)c4ncnc(N)c24)c3F)n1 [GSK2656157]	~125	
Cc1ccc2c(NS(=O)(=O)c3ccccc3Cl)cccc2c1Oc1ncccc1-c1ccnc(N[C@H]2CCCNC2)n1 [KIRA8]		~125
